The values that follow are results of earlier work, collected in patent publication US7825150B2, “Compositions and methods for treating immunological and inflammatory diseases and disorders” (Lexicon Pharmaceuticals, Inc., priority 2007, dated 2010).

The structures appear in SMILES notation. Read-outs that look alike come from different tables or passages of the source.

The subject of data set [1] is adjuvant-induced arthritis (AA) model. Conditions: therapeutic setting, established disease state; majority of published studies.
For data set [2] the following is noted: humans.
Another data set deals with T1, S1P lyase (Mus musculus, UniProt Q8R0X7).
T1 construct: host or cells: mice, in vivo (endogenous enzyme)
T1 sequence (Q8R0X7 1-568): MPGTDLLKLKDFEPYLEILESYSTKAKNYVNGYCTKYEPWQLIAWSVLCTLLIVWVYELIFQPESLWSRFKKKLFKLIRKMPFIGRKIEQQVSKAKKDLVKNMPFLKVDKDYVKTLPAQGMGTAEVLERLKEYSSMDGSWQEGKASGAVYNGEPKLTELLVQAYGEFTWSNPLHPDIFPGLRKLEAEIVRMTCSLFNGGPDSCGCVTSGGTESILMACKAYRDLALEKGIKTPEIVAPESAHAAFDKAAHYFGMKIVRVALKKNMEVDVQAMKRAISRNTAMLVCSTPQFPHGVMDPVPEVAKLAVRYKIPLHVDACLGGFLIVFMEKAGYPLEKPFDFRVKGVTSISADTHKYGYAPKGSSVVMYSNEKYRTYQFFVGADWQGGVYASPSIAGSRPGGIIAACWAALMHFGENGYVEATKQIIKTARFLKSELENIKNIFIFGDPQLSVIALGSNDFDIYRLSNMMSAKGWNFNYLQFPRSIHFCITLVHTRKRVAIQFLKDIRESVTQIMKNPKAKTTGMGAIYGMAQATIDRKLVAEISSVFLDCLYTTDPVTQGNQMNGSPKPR
Conditions: administered to mice; Schwab et al. 2005.

Data set [3] concerns lymphocytes. The settings on record: administration to mice.
Data set [4] has as its system lymphocytes. The settings on record: administration to rats.

For `CN(Cc1cnc2nc(N)nc(N)c2n1)c1ccc(C(=O)N[C@@H](CCC(=O)O)C(=O)O)cc1` [MTX, methotrexate], in data set [1], the “effectiveness of MTX treatment alone in this model” value is listed as “not effective”.
Take `CC(=O)c1nc(C(O)C(O)C(O)CO)c[nH]1` (stereo not shown) [THI, 2-acetyl-4-tetrahydroxybutylimidazole]: in data set [2], the immunological effects entry is “no immunological effects”. The S1P lyase activity entry at S1P lyase is on record as “inhibits S1P lyase activity”. In addition, in the data set on lymphocytes [3], the “accumulation of mature T cells in the thymus” value was “causes the accumulation of mature T cells in the thymus” and the lymphopenia result was “induces lymphopenia”. In addition, in the data set on lymphocytes [4], the “accumulation of mature T cells in the thymus” value was “causes the accumulation of mature T cells in the thymus” and the lymphopenia entry is given as “induces lymphopenia”.
